What was measured:
[1] = test system: U46619-induced bronchoconstriction; assay: Bronchodilatation in vivo: inhibition of U46619-induced bronchoconstriction in anaesthetised guinea-pigs; parameters: species or system guinea-pig (Dunkin Hartley); conditions: Cavia porcellus, iv; i.v. bolus; U46619 infused i.v. at 2.5 nmol/min; range over the listed Examples; read-out: BD50 (dose of compound required to reduce the U46619-induced bronchoconstriction by 50%)
Description: Male guinea-pigs of the Dunkin Hartley strain (500-600 g) were anaesthetised with Sagatal (pentobarbital sodium) (60 mg/kg). Airway resistance was measured using a modification of the classical Konzett-Rossler technique (J. Pharm. Methods, 13, 309-315, 1985). U46619 (9,11-methanoepoxy-PGH2) was infused i.v. at a rate of 2.5 nmol/min, this produced a steady state of bronchoconstriction (approximately 120% increase from basal airway resistance). The compound under test was administered by i.v. bolus injection, and the subsequent peak inhibition of bronchoconstriction recorded.
The dose of compound required to reduce the U46619-induced bronchoconstriction by 50% is given as the BD50. The compounds of Examples 2, 3, 6, 11, 14 and 15 had BD50 values in the range 0.58-7.24 μmol/kg.

[2] = test system: ovalbumen antigen challenge bronchoconstrictor response; assay: Anti-allergic activity: inhibition of ovalbumen-induced bronchoconstrictor response in sensitised guinea-pigs; type: in vivo, guinea-pig (Duncan Hartley); conditions: ovalbumen 1 mg/kg i.v.
Description: Male Duncan Hartley guinea-pigs (250-300 g) were sensitised to ovalbumen by i.p. injection of 2 ml of 50mg.ml^-1 i.p. and 0.2 ml s.c. Three weeks later they were anaesthetised with 60 mg.kg^-1 sodium pentobarbitone. The trachea was cannulated and the animal respired at a rate of 40 breaths per minute and at an initial tracheal inflation pressure of 16 mmHg. Tracheal inflation pressure was measured by a transducer connected to a side arm of the respiration circuit. The carotid artery was cannulated for the measurement of blood pressure and the signal was used to trigger an instantaneous rate meter. A jugular vein was cannulated for the administration of drug and allergen. After surgery the animals were allowed to stabilise and the drug was administered i.v. as a bolus. Following this, ovalbumen 1 mg.kg^-1 was injected i.v. as the antigen challenge either 2, 15 or 30 minutes following drug treatment and the peak bronchoconstrictor response recorded. For the control group ovalbumen only was given. One ovalbumen challenge per guinea-pig was used and n=6 for each time point. The percentage increase in tracheal inflation pressure was calculated. The following results indicating an anti-allergic activity were obtained.

[3] = biological target: calmodulin insensitive cyclic GMP phosphodiesterase (Homo sapiens, UniProt O76074); assay: Inhibition of calmodulin insensitive cyclic GMP phosphodiesterase; type: biochemical; conditions: procedure of European Patent Application No. 293063; range over the listed Examples; read-out: IC50 (concentration of inhibitor required for 50% inhibition of enzyme activity)
Description: The activity of the compounds of the present invention as inhibitors of a calmodulin insensitive cyclic GMP phosphodiesterase was measured using the procedure described in European Patent Application No. 293063. […] The compounds of the present invention have the advantage that the are selective in not inhibiting cyclic AMP phosphodiesterase (type III)

Row | SMILES | ED50 [1] [µmol/kg] | IC50 [3] [nM] | further results
1 | O=c1[nH]c(-c2ccccc2OCC2CC2)nc2nc[nH]c12 [Example 2, 2-(2-Cyclopropylmethoxyphenyl)purin-6-one] | 0.58 to 7.24 | – | –
2 | O=c1[nH]c2nc(-c3ccccc3OCC3CC3)[nH]c(=O)c2[nH]1 [Example 3, 2-(2-Cyclopropylmethoxyphenyl)purin-6,8-dione] | 0.58 to 7.24 | – | % Inhibition of Control Bronchoconstrictor Response 30 min after drug administration ([2]; dose 18.4 μmol/kg i.v.): 24%
3 | CCCOc1ccccc1-c1nc2nc(-c3ccccc3)[nH]c2c(=O)[nH]1 [Example 6, 2-(2-Propoxyphenyl)-8-phenylpurin-6-one] | 0.58 to 7.24 | 310 to 4800 | –
4 | CCCOc1ccccc1-c1nc2nc(S)[nH]c2c(=O)[nH]1 [Example 8, 2-(2-Propoxyphenyl)-8-mercaptopurin-6-one] | – | 310 to 4800 | –
5 | CCCOc1ccccc1-c1nc2nc(SC)[nH]c2c(=O)[nH]1 [Example 9, 2-(2-Propoxyphenyl)-8-methylthiopurin-6-one] | – | 310 to 4800 | –
6 | CCCOc1ccc([N+](=O)[O-])cc1-c1nc2nc[nH]c2c(=O)[nH]1 [Example 11, 2-(2-Propoxy-5-nitrophenyl)purin-6-one] | 0.58 to 7.24 | – | –
7 | CCCOc1ccc(OC)cc1-c1nc2nc[nH]c2c(=O)[nH]1 [Example 14, 2-(2-Propoxy-5-methoxyphenyl)purin-6-one] | 0.58 to 7.24 | – | –
8 | CCCOc1ccc(Cl)cc1-c1nc2nc[nH]c2c(=O)[nH]1 [Example 15, 2-(2-Propoxy-5-chlorophenyl)purin-6-one] | 0.58 to 7.24 | – | % Inhibition of Control Bronchoconstrictor Response 30 min after drug administration ([2]; dose 16.6 μmol/kg i.v.): 30%

— patent US5073559A, “2-Substituted purinone having phosphodiesterase inhibitory activity” (Smith Kline & French Laboratories, Ltd., priority 1988, dated 1991)
